From patent US20260234188A1, “CHEMOKINE-BINDING PEPTIDES” (Oxford University Innovation Limited, priority 2022, published 2026)
Entries after “also recorded” stand apart in the source; their conditions may differ.

These substances were tested on panel of up to 42 human chemokines (assay: Phage-display next generation sequencing screen of overlapping hexadecapeptide libraries, chemokines displayed on streptavidin beads). Conditions: log2E greater than 5, chemokines named by first part of UniProt Entry Name.
Type: binding
Outline: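 Phage-display libraries of 55662 overlapping hexadecapeptides from tick and viral chemokine-binding proteins, human chemokines and chemokine receptors screened against up to 42 human chemokines, with hits found by next-generation sequencing. Peptides mapped to parent-protein position with log2 fold enrichment; regions of interest where cumulative residue log2 E exceeds the 95% upper CI of the protein median.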
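Note: chemokine listed when log2 fold enrichment exceeds 5.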

| Substance | Chemokines Bound |
| --- | --- |
| CR23915 (TVFLSIFYSVIFAIGL) | CCL17, CCL18,; also recorded: CCL19, CCL2,; also recorded: CCL20, CCL22,; also recorded: CCL25, CCL28,; also recorded: CCL8, X3CL1,; also recorded: CXL10, CXL11,; also recorded: SDF1, CXL13,; also recorded: CXL14, IL8 |
| CR23943 (TVITFALYVGQFLAYV) | CCL2, CCL20,; also recorded: CCL22, X3CL1,; also recorded: CXL10, CXL11,; also recorded: SDF1, CXL13 |
| CR23945 (TVITFSLYVGQFLAYV) | CCL1, CCL15,; also recorded: CCL20, CCL22,; also recorded: CCL28, CXL10,; also recorded: CXL11, SDF1,; also recorded: CXL13 |
| CR23947 (TVKLIFAIVVAYFLSW) | CCL17, CCL20,; also recorded: CCL22, CCL28,; also recorded: SDF1, CXL14 |
| CR23950 (TVLATFKILICIVWGV) | CCL18, CCL19,; also recorded: CCL20, CCL25,; also recorded: SDF1, IL8 |
| CR23958 (TVLLSWKVLLTMVWGA) | CCL1, CCL18,; also recorded: CCL20, CCL25,; also recorded: CCL28, CXL10,; also recorded: CXL11, SDF1 |
| CR24063 (TWNLVLSQFFSILATM) | CCL1, CCL22,; also recorded: CXL11, CXL14 |
| CR24107 (TYIILLLTWFAGLIFS) | CCL22, CCL25,; also recorded: CXL11 |
| CR24347 (VAYSLIFLLGVIGNVL) | CCL18, CCL19,; also recorded: CCL20, CXL11,; also recorded: CXL14 |
| CR24367 (VCILVWLLAFCVSLPD) | CCL11, CCL17,; also recorded: CCL18, CCL19,; also recorded: CCL20, CCL22,; also recorded: CCL25, CCL28,; also recorded: CXL10, CXL11,; also recorded: SDF1, CXL13,; also recorded: CXL14, IL8 |
| CR24556 (VFGTVFLSIFYSVIFA) | CCL1, CCL17,; also recorded: CCL18, CCL19,; also recorded: CCL2, CCL20,; also recorded: CCL22, CCL25,; also recorded: CCL28, X3CL1,; also recorded: CXL10, CXL11,; also recorded: SDF1, CXL13,; also recorded: CXL14, IL8 |
| CR24593 (VFLLSLLGNSLVMLVI) | CCL22, CCL25, and CXL10, CXL11, and SDF1, CXL13, and IL8 |
| CR24594 (VFLLSLVGNSLVLWVL) | CCL22, X3CL1, and CXL11, CXL13, and IL8 |
| CR24612 (VFLSIFYSVIFAIGLV) | CCL17, CCL18,; also recorded: CCL22, CCL25,; also recorded: CCL28, X3CL1,; also recorded: CXL10, CXL11,; also recorded: SDF1, CXL13,; also recorded: CXL14 |
| CR24702 (VFYSLLFVFSLLGNSL) | CCL17, CCL18, and CCL19, CCL20, and CCL22, CCL25, and CCL5, X3CL1, and CXL11, CXL14, and IL8 |
| CR24707 (VGALGNSLVILVYWYC) | CCL17, CCL18,; also recorded: CCL19, CCL20 |
| CR24900 (VIGFLVPLLAMSFCYL) | CCL15, CCL17,; also recorded: CCL18 |
| CR24960 (VIMMTWFYAFFYSTVQ) | CCL1, CCL17,; also recorded: CCL18, CCL2,; also recorded: CCL22, CCL25,; also recorded: CCL28, CCL5,; also recorded: X3CL1, CXL11,; also recorded: CXL13, IL8 |
| CR24989 (VITFCLYVGQFLAYVR) | CCL17, CCL18,; also recorded: CCL19, CCL20,; also recorded: CCL25, X3CL1,; also recorded: CXL10, SDF1,; also recorded: CXL14 |
| CR25001 (VITWLVAVFASVPGII) | CCL1, CCL19,; also recorded: CCL2, CXL11,; also recorded: CXL14 |
| CR25151 (VLGDFLCKLLNMIFSI) | CCL18, CCL2, and CCL28, X3CL1, and CXL10, CXL14, and IL8 |
| CR25165 (VLGLLLNSLALWVFAA) | CCL19, CCL2,; also recorded: CCL20, CCL28 |
| CR25167 (VLGLLLNSLALWVFSS) | CCL11, CCL17,; also recorded: CCL18, CXL11,; also recorded: CXL14 |

| Substance | Chemokines Bound |
| --- | --- |
| CR25244 (VLLSWKVLLTMVWGAA) | CCL11, CCL17,; also recorded: CCL18, CCL19,; also recorded: CCL2, CCL20,; also recorded: CCL22, CCL25,; also recorded: CCL28, X3CL1,; also recorded: CXL10, CXL11,; also recorded: SDF1, CXL13,; also recorded: CXL14, IL8 |
| CR25357 (VLTLKVILGFFLPFVV) | CCL1, CCL17,; also recorded: CCL18, CCL19,; also recorded: CCL28, CXL10,; also recorded: CXL11, SDF1,; also recorded: CXL13, CXL14 |
| CR25375 (VLVIGSLVARWLLGIQ) | CCL18, CCL19,; also recorded: CCL20 |
| CR25407 (VLYFIADEVYTVLLSW) | CCL15, CCL17, and CCL18, CCL19, and CCL20, CCL25, and X3CL1, CXL10, and CXL11, CXL13, and IL8 |
| CR25802 (VSILVWLLAFSVSLPD) | CCL15, CCL18, and CCL19, CCL20, and CCL28, CXL10, and IL8 |
| CR26001 (VTLTSLAVWGLSLLFA) | CCL11, CCL2,; also recorded: CCL28, SDF1 |
| CR26036 (VTSLLIWVISLLVSLP) | CCL28, X3CL1, and SDF1, CXL14, and IL8 |
| CR26041 (VTSVITWLVAVFASVP) | CCL2, X3CL1,; also recorded: CXL11, IL8 |
| CR26093 (VVCILVWLLAFCVSLP) | CCL20, X3CL1,; also recorded: CXL10, IL8 |
| CR26155 (VVLIFLLSWLPYNLVL) | CCL15, CCL28,; also recorded: CXL10, CXL13 |
| CR26231 (VVTSVITWLVAVFASV) | CCL11, CCL17, and CCL18, CCL2, and CCL20, CCL25, and CCL8, CXL10, and CXL11, CXL14, and IL8 |
| CR26232 (VVTSVITWVVAVFASL) | CCL17, CCL18,; also recorded: CCL28, CCL8,; also recorded: X3CL1, CXL10,; also recorded: SDF1, CXL14 |
| CR26306 (VWLMAIVGTFLNVLVI) | CCL22, CXL11,; also recorded: CXL13 |
| CR26308 (VWLMCIVGTFLNVLVI) | CCL18, CCL20, and CCL22, CCL28, and CXL10, CXL11, and SDF1 |
| CR26309 (VWLMSIVGTFLNMLVI) | CCL18, CXL10,; also recorded: CXL11, CXL13,; also recorded: CXL14 |
| CR26310 (VWLMSIVGTFLNVLVI) | CCL17, CCL18,; also recorded: CCL2, CXL10,; also recorded: CXL11, SDF1,; also recorded: CXL14, IL8 |
| CR26327: chemokine binding peptide of Table 5A used in FIG. 5 combinations (VWVASILSSILDTIFH) | CCL2, CXL11, and IL8 |
| CR26399 (VYTVLLSWKVLLTLVW) | CCL1, CCL17, and CCL18, CCL19, and CCL20, CCL22, and CCL25, CCL28, and X3CL1, CXL10, and CXL11, SDF1, and CXL13, CXL14, and IL8 |
| CR26500 (WFLPIMYSIICFVGLL) | CCL28, SDF1,; also recorded: CXL14 |
| CR26513 (WGAAPVIMMTWFYAFF) | CCL11, CCL17, and CCL18, CCL19, and CCL20, CCL22, and CCL25, CCL28, and X3CL1, CXL10, and CXL11, CXL13, and IL8 |
| CR26521 (WGLALLFALPDFIFLS) | CCL15, CXL13, and IL8 |
| CR26536 (WGWVLGDFLCKLLNMI) | CCL1, CCL11,; also recorded: CCL17, CCL18,; also recorded: CCL20, CCL22,; also recorded: CCL28, CCL5,; also recorded: X3CL1, CXL10,; also recorded: SDF1, IL8 |
| CR26547 (WHWVFGSFLAKMVSTL) | CCL1, X3CL1,; also recorded: CXL14 |

| Substance | Chemokines Bound |
| --- | --- |
| CR26592 (WKLLAEIYEYLFFFSF) | CCL19, CCL20,; also recorded: CCL22, CXL14 |
| CR26630 (WLMCIVGTFLNVLVIT) | CCL1, CCL17,; also recorded: CCL18, CCL19,; also recorded: CCL20, CCL22,; also recorded: CCL28, CCL8,; also recorded: X3CL1, CXL10,; also recorded: CXL11, SDF1,; also recorded: CXL14, IL8 |
| CR26633 (WLMSIVGTFLNMLVIT) | CCL11, CCL17,; also recorded: CCL18, CCL19,; also recorded: CCL20, CCL22,; also recorded: CCL25, CCL28,; also recorded: X3CL1, CXL10 |
| CR26655 (WMNILWAWFIFWWPHG) | CCL17, CCL18,; also recorded: CCL19, CCL20,; also recorded: CCL28, CXL10,; also recorded: SDF1, IL8 |
| CR26667 (WNNFHTIMRNILGLVL) | CCL17, CCL18,; also recorded: CXL14 |
| CR26721 (WSLVFMAIERINYFAY) | CCL17, CCL18,; also recorded: CXL10 |
| CR26762 (WVASILSSILDTIFHK) | CCL17, CCL18,; also recorded: X3CL1, CXL10,; also recorded: CXL11, IL8 |
| CR26799 (WVFIFSSIQLATVVFL) | CCL18, CCL19, and CCL20, CCL22, and CCL28, X3CL1, and CXL10, CXL11, and IL8 |
| CR26801 (WVFIFSSIQLCTVVFL) | CCL1, CCL17,; also recorded: CCL18, CCL19,; also recorded: CCL20, CCL28,; also recorded: X3CL1, SDF1 |
| CR26817 (WVLGDFLCKLLNMIFS) | CCL1, CCL17, and CCL18, CCL20, and CCL28, X3CL1, and CXL10, CXL11, and CXL13, CXL14, and IL8 |
| CR26831 (WVLVIGSLVARWLLGI) | CCL17, CCL2,; also recorded: X3CL1, CXL10 |
| CR26850 (WVVVFQFQHIMVGLIL) | CCL1, CCL19, and CCL20, CCL28, and SDF1 |
| CR27049 (YDLFIGIKIVYAFLWG) | CCL1, CCL18, and CCL22, CCL25, and IL8 |
| CR27050 (YDLFIGIKIVYCFLWG) | CCL1, CCL17,; also recorded: CCL19, CCL20,; also recorded: CCL22, X3CL1,; also recorded: CXL10, CXL11,; also recorded: SDF1, CXL13,; also recorded: CXL14, IL8 |
| CR27051 (YDLFIGIKIVYSFLWG) | CCL18, CCL2,; also recorded: CCL20, CCL25,; also recorded: CCL28, CXL10,; also recorded: CXL11, CXL14 |
| CR27428 (YLKAFLAAVLGWHLAP) | CCL17, CCL18,; also recorded: CCL2, CCL20,; also recorded: X3CL1, CXL10,; also recorded: CXL11, SDF1,; also recorded: CXL14 |
| CR27433 (YLLDFILALVGNTLAL) | CCL18, CCL19,; also recorded: CCL20, CCL25,; also recorded: CCL28, CXL10,; also recorded: CXL11 |
| CR27448 (YLLNLAISDLLFVFSL) | CCL1, CCL2,; also recorded: CXL11, IL8 |
| CR27514 (YLYVYLDIFSVVSVSL) | CCL1, CCL19, and SDF1 |
| CR27677 (YSAFLSGMTSLLLVLL) | CCL17, CCL18,; also recorded: CCL20, CCL25,; also recorded: CXL10, CXL14 |
| CR28001 (YVSFISTTILFLIFSV) | CCL1, CCL15,; also recorded: CCL17, CCL19,; also recorded: CCL20, CCL22,; also recorded: CCL25, CCL28,; also recorded: X3CL1, CXL10,; also recorded: CXL11, CXL14 |
| CR28005 (YVSTLDFAIVFILMII) | CCL17, CCL18,; also recorded: CCL19, CCL20,; also recorded: CCL22, CCL28,; also recorded: X3CL1, CXL10,; also recorded: CXL11, SDF1,; also recorded: CXL13 |

Same assay, conditions: log2E greater than 5, chemokines named by first part of UniProt Entry Name, peptides binding complement C5a (control) excluded

| Substance | Chemokines Bound |
| --- | --- |
| EB630 (DKKVGLCLSTEYTDFS) | CXL10, SDF1,; also recorded: CXL14 |
| EB936 (EKSDEYELFTVEYCGT) | CXL10, CXL11,; also recorded: SDF1, CXL13 |
| EB963 (ENDKKVGLCLSTEYTD) | CXL10, CXL11, and SDF1 |
| EB1522 (GNSTEGRCIELIGDFD) | CXL11, SDF1,; also recorded: CXL14 |
| EB1728 (HEDGKKVGLCLSTEYT) | CXL10, SDF1,; also recorded: CXL14 |
